The values below come from patent US7687473B2, “5-amino-4-imidazolecarboxamide riboside and its nucleobase as potentiators of antifolate transport and metabolism” (Health Research, Inc., priority 2005, dated 2010).

Where two headings read alike, the source gives them in different places.

The test system of experiment [1] is CCRF-CEM cells. Put plainly: [3H]MTX uptake (initial velocity and 30 min accumulation) in CCRF-CEM cells. It is filed as cell-based, human. The conditions noted are these: for Potentiation of [3H]MTX uptake at 30 min: compound at 0.5 mM, 10 min pre-incubation with TMTX. On the procedure:
Quantitation of folate and antifolate uptake. The method is essentially as follows. Briefly, logarithmically growing (3-5×10^5/ml) CCRF-CEM cells were harvested at room temperature by centrifugation at 1000×g for 5 min. After washing with the appropriate medium, cells were suspended at ≈2×10^7 cells/ml for use in transport studies. […] Anion-free MHS contains 250 mM sucrose and 20 mM HEPES, titrated to pH 7.4 with MgO. […] Uptake was measured as a function of time for 30 min (for rate and extent measurements) or over 5 min (studies requiring initial velocities). […] Uptake was terminated by diluting 100 μL samples into 1 ml of iced 0.9% NaCl. […] The supernatant was aspirated. The cell pellet was washed once with 1 ml iced 0.9% NaCl and centrifuged as above. The washed pellet was solubilized in 1 ml of 0.3% Triton X-100 by incubation for 60 min at 37° C. The solubilized pellet was transferred to a scintillation vial, 10 ml of Liquiscint (National Diagnostics, Atlanta, Ga.) was added and radioactivity was quantitated in a Beckman Model LS6500 liquid scintillation counter. Separate samples at the longest incubation time used in a particular experiment were harvested for HPLC analysis of intracellular contents as above, except that after the second wash the pellets were extracted with 1 ml boiling 0.1 M Na-phosphate, pH 5.5. The extract was clarified by centrifugation and the supernatant was filtered through an MPS-1 filter unit (Amicon) prior to HPLC analysis.

Experiment [2] relates to CCRF-CEM cells. The experiment is described as follows: cells. It is filed as cell-based, human. To be noted: for EC50: Homo sapiens, CCRF-CEM, read-out: EC50. As for the experimental part:
Inhibition of growth of human cell lines in vitro. Inhibition of growth of CCRF-CEM in continuous and intermittent drug exposures was measured. EC50 values were determined from plots of percent control growth versus the logarithm of drug concentration.
[…]; n=2). […]; n=2). Values presented are average±S.D. for n>2 and average±range for n=2. […] […]; EC50 data may therefore underestimate the biological potency.

Experiment [3] has as its target T1, reduced folate carrier (RFC) (Homo sapiens, UniProt P41440).
T1 construct: endogenous in cells; host or cells: CCRF-CEM (parental)
T1 sequence (P41440 1-591): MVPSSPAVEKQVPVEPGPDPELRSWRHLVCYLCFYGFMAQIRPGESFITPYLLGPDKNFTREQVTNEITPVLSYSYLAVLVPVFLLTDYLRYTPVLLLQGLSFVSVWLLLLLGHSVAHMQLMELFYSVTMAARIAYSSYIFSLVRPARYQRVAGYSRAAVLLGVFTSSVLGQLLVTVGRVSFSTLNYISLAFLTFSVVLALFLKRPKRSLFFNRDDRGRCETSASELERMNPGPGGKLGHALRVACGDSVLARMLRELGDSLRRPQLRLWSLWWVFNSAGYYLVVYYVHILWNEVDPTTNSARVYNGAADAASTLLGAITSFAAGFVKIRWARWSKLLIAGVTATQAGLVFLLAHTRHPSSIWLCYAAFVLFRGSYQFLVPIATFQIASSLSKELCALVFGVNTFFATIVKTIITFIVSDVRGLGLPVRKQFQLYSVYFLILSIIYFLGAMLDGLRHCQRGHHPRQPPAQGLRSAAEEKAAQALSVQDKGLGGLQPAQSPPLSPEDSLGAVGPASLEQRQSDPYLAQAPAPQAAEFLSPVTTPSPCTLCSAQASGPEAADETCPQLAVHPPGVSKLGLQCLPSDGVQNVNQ
The experiment is described as follows: Inhibition of initial velocity of [3H]MTX influx by competitors. The conditions noted are these: for IC50: IC50, inhibition of initial velocity of [3H]MTX influx. It is filed as cell-based. As for the experimental part: Duplicate samples were removed at 5 min and processed as described above.
Inhibition of the vi of uptake was measured after pre-incubation of CCRF-CEM cells either with TMTX alone (measuring inhibition at the RFC) or with TMTX+Z (measuring inhibition during Z potentiation). […] All studies were carried out in standard transport medium. Inhibitory potency was measured in two series of experiments and AMT was included in each series as an internal control. Values are average±range of two determinations. […] Values are average±range for duplicate determinations.

The subject of experiment [4] is CCRF-CEM cells. Put plainly: Accumulation of DDATHF polyglutamates in CCRF-CEM cells. It is filed as cell-based, human. To be noted: for DDATHF-Glun, N = 1 / DDATHF-Glun, N = 2 / DDATHF-Glun, N = 3 / DDATHF-Glun, N = 4 / DDATHF-Glun, N = 5 / DDATHF-Glun, N = 6 / DDATHF-Glun, Total / DDATHF-Glun, Total N ≧ 3: 4 hr, 1 μM [3H]DDATHF. As for the experimental part: At the end of the exposure cells were rapidly chilled to 4 degrees C., harvested by centrifugation at 1000×g for 5 min, washed twice with iced 0.9% NaCl by centrifugation in the same manner. One mL of boiling 50 mM Na-phosphate, pH 5.5 was added, the pellet was triturated and the sample boiled for 5 min. The sample was rapidly cooled to 4 degrees C. Debris was removed by centrifugation as above. The supernatant was further clarified by centrifugation through an Amicon MPS-1 filter unit. […] A suitable volume was injected onto a reversed-phase HPLC column (C18) and eluted with a gradient of from 4-14% acetonitrile over about 43 min. One min fractions were collected and, after addition of 10 ml scintillation fluid, were quantitated by liquid scintillation counting. […]

Setting [5] is: +TMTX + Z, 10 min pre-incubation with 1 μM TMTX and 0.5 mM Z (Z potentiated influx).
Where [6] appears, read: +TMTX, 10 min pre-incubation with 1 μM TMTX alone (inhibition of the RFC).
Where [7] appears, read: 1 mM, 30 min incubation, TMTX present, Z absent.

With `Nc1nc2c(ncn2[C@H]2C[C@H](O)[C@@H](CO)O2)c(=O)[nH]1` [deoxyguanosine], in experiment [1], the “Potentiation of [3H]MTX uptake at 30 min” value is reported as “do not potentiate”.

With `NC(=O)c1nc[nH]c1N` [Z-base, 5-amino-4-imidazolecarboxamide], the “Potentiation of [3H]MTX uptake at 30 min” value in experiment [1] is reported as “potentiates”.

Consider `Nc1nc2[nH]cc(CCc3ccc(C(=O)N[C@@H](CCC(=O)O)C(=O)O)cc3)c2c(=O)[nH]1` [pemetrexed], for which the EC50 (usually the midpoint of the concentration-response curve) in experiment [2] (0-6 hr pulse exposure out of 120 hr, 50 μM Z) amounted to 320 ± 30 nM; in experiment [2] (0-6 hr pulse exposure out of 120 hr, absence of Z) it was 300 ± 10 nM; in experiment [2] (0-16 hr pulse exposure out of 120 hr, 50 μM Z), 102 ± 17.5 nM; in experiment [2] (0-16 hr pulse exposure out of 120 hr, absence of Z), 85.5 ± 6.5 nM; in experiment [2] (120 h, 120 hr continuous exposure, 50 μM Z) it was 19.8 ± 3.3 nM; in experiment [2] (120 h, 120 hr continuous exposure, absence of Z), 18.3 ± 3.4 nM.

For the molecule `Nc1nc2ncc(CNc3ccc(C(=O)N[C@@H](CCC(=O)O)C(=O)O)cc3)nc2c(=O)[nH]1` [PteGlu, folic acid], the IC50 – broadly, the concentration needed to halve the response being measured – came to 18500 ± 1100 nM in experiment [3] (setting [5]) and 18600 ± 600 nM in experiment [3] (setting [6]). For the same molecule, in experiment [3] (observed ±Z, data not shown), the “Plateau in inhibition of [3H]MTX influx” value was 60-70%.

For the molecule `Nc1nc2nc[nH]c2c(=O)[nH]1` [guanine], the “Potentiation of [3H]MTX uptake at 30 min” value in experiment [1] was “do not potentiate”.

Consider `O=c1[nH]cnc2nc[nH]c12` [hypoxanthine], for which, in experiment [1], the “Potentiation of [3H]MTX uptake at 30 min” value is reported as “do not potentiate”.

For the molecule `OC[C@H]1O[C@@H](n2cnc3c(O)ncnc32)[C@H](O)[C@@H]1O` [inosine], in experiment [1], the “Ability to potentiate [3H]MTX uptake” value is recorded as “unable to potentiate” and the “Potentiation of [3H]MTX uptake at 30 min” value was “do not potentiate”.

For the molecule `Nc1nc(N)c2nc(CNc3ccc(C(=O)N[C@@H](CCC(=O)O)C(=O)O)cc3)cnc2n1` [AMT, 4-amino-pteroylglutamic acid], in experiment [2] (0-24 hr pulse of 120 hr, 100 μM Z), the “Increase of growth inhibitory potency (EC50) by Z” value was “≈ 2 fold”. Further, the EC50 in experiment [2] (drug exposure 0-24/120 hr, [Z] 0 μM) was found to be 6.1 ± 1.3 nM; in experiment [2] (drug exposure 0-24/120 hr, [Z] 100 μM), 3.7 ± 0.3 nM.

With `NC(=O)CC[C@H](N)C(=O)O` [glutamine], the “Ability to potentiate [3H]MTX uptake” value in experiment [1] was “unable to potentiate”.

For `NC(=O)NC1NC(=O)NC1=O` (centres unmarked) [ALN, allantoin], the “Potentiation of [3H]MTX uptake” value in experiment [1] (500 μM) is on record as “does not potentiate”. Moreover, the “Inhibition of potentiation by 500 μM Z” value in experiment [1] (up to 100 μM) was “does not inhibit potentiation”.

Consider `Nc1nc2c(c(=O)[nH]1)N(C=O)[C@H](CNc1ccc(C(=O)N[C@@H](CCC(=O)O)C(=O)O)cc1)CN2` [(6R,S)-LV, [6R,S]-5-formyltetrahydrofolate], for which the IC50 stood at 2700 nM in experiment [3] (setting [5]) and 2600 ± 100 nM in experiment [3] (setting [6]).

For `Nc1ncnc2nc[nH]c12` [adenine], in experiment [1], the “Potentiation of [3H]MTX uptake at 30 min” value is recorded as “do not potentiate”.

For the molecule `NC(=O)c1[nH]nc([C@@H]2O[C@H](CO)[C@@H](O)[C@H]2O)c1O` [pyrazofurin], the “Ability to potentiate [3H]MTX uptake” value in experiment [1] is recorded as “unable to potentiate”.

Take `Nc1nc2c(c(=O)[nH]1)CC(CCc1ccc(C(=O)N[C@@H](CCC(=O)O)C(=O)O)cc1)CN2` (some centres unmarked) [DDATHF, 5,10-dideazatetrahydrofolate]: the “Effect of Z on DDATHF uptake” value in experiment [4] (30 min incubation) is reported as “no effect of Z was observed”. In experiment [4] (4 hr incubation with 1 μM [3H]DDATHF), the “Increase of total drug accumulation by Z” value is 11%. Besides, in experiment [4] (+Z), the “DDATHF-Glun, N = 1” value amounted to 17.5 ± 1.3 pmol/10^7 cells; the “DDATHF-Glun, N = 2” value is given as 5.9 ± 0.1 pmol/10^7 cells; the “DDATHF-Glun, N = 3” value is 10.1 ± 0.1 pmol/10^7 cells; the “DDATHF-Glun, N = 4” value stood at 15.2 ± 0.8 pmol/10^7 cells. In addition, in experiment [4] (+Z), the “DDATHF-Glun, N = 5” value is reported as 29.8 ± 0.3 pmol/10^7 cells; the “DDATHF-Glun, N = 6” value is on record as 33.0 ± 2.3 pmol/10^7 cells; the “DDATHF-Glun, Total” value is 111.3 pmol/10^7 cells; the “DDATHF-Glun, Total N ≧ 3” value came to 88.0 pmol/10^7 cells. In experiment [4] (−Z), the “DDATHF-Glun, N = 1” value was 14.8 ± 0.8 pmol/10^7 cells; the “DDATHF-Glun, N = 2” value is 4.9 ± 0.8 pmol/10^7 cells; the “DDATHF-Glun, N = 3” value amounted to 9.2 ± 0.9 pmol/10^7 cells; the “DDATHF-Glun, N = 4” value is listed as 13.3 ± 2.1 pmol/10^7 cells. Besides, in experiment [4] (−Z), the “DDATHF-Glun, N = 5” value amounted to 28.1 ± 2.1 pmol/10^7 cells; the “DDATHF-Glun, N = 6” value was 30.5 ± 0.9 pmol/10^7 cells; the “DDATHF-Glun, Total” value came to 100.8 pmol/10^7 cells; the “DDATHF-Glun, Total N ≧ 3” value was 81.1 pmol/10^7 cells.

With `Nc1ncnc2c1ncn2[C@@H]1O[C@H](CO)[C@@H](O)[C@H]1O` [Adenosine, adenosine], in experiment [1], the “Ability to potentiate [3H]MTX uptake” value was “unable to potentiate” and the “Potentiation of [3H]MTX uptake at 30 min” value is “do not potentiate”.

Consider `Nc1ncnc2c1ncn2[C@H]1C[C@H](O)[C@@H](CO)O1` [deoxyadenosine], for which the “Potentiation of [3H]MTX uptake at 30 min” value in experiment [1] is given as “do not potentiate”.

As to `Cc1cn([C@H]2C[C@H](O)[C@@H](CO)O2)c(=O)[nH]c1=O` [thymidine], in experiment [1], the “Potentiation of [3H]MTX uptake at 30 min” value is given as “do not potentiate”.

`CSCC[C@H](N)C(=O)O` [methionine]: in experiment [1], the “Ability to potentiate [3H]MTX uptake” value is listed as “unable to potentiate”.

Turning to `Cc1nc2ccc3ccc(CNc4ccc5c(c4)CN([C@@H](CCC(=O)O)C(=O)O)C5=O)cc3c2c(=O)[nH]1` [BW1843U89, (S)-2-(5-(((1,2-dihydro-3-methyl-1-oxobenzo(F)quinazolin-9-yl)methyl)-amino)-1-oxo-2-isoindolinyl)glutaric acid], the figures for the IC50 in experiment [3] (setting [5]) and in experiment [3] (setting [6]) were 1300 ± 400 nM and 1000 ± 100 nM, respectively.

Turning to `OC[C@H]1O[C@@H](n2cnc3c(O)ncnc32)C[C@@H]1O` [deoxyinosine], the “Potentiation of [3H]MTX uptake at 30 min” value in experiment [1] is recorded as “do not potentiate”.

For `CCCC(=O)Nc1ncnc2c1ncn2[C@@H]1O[C@@H]2COP(=O)(O)O[C@H]2[C@H]1OC(=O)CCC` [dibutyryl-cAMP], in experiment [1] (setting [7]), the “30 min accumulation of [3H]MTX compared to TMTX alone” value is “lower 30 min accumulation” and the “Initial velocity of [3H]MTX uptake compared to TMTX alone” value is “reduced initial velocity”.

In the case of `Nc1nc2c(ncn2[C@@H]2O[C@H](CO)[C@@H](O)[C@H]2O)c(=O)[nH]1` [guanosine], in experiment [1], the “Ability to potentiate [3H]MTX uptake” value was “unable to potentiate” and the “Potentiation of [3H]MTX uptake at 30 min” value is given as “do not potentiate”.

With `O=CO` [formate], the “Ability to potentiate [3H]MTX uptake” value in experiment [1] was “unable to potentiate”.
